According to US20190160257A1, “METHODS AND SYSTEMS FOR INHIBITING VASCULAR INFLAMMATION” (Mercator MedSystems, Inc., priority 2002, published 2019):
“Also recorded” adds a separate entry of the source.

Key:
[1] = pig, in vivo
Description: Injections were made to depths in the range from 0.8 mm to 1.2 mm One artery was treated intraluminally with 5 mL OGP to determine background vascular uptake. Animals were sacrificed 0.5-23 hr post-procedure following IACUC-approved protocol. After sacrifice, the LAD, RCA and LCx were removed, cut into 4-5 mm sections, which were frozen and cryosectioned. The slides were counter-stained with 0.1% Evan's Blue in PBS (5 min 37 C) to quench autofluorescence, observed with a UV microscope, and scored 0-4+. Representative sections were photographed.

[2] = two injections of 0.5 mL 5% silver nitrate per iliac artery
Description: The animal was sacrificed according to approved protocol following the last injection. The arteries were removed and placed in 10% formalin without perfusion. 2 mm segments were embedded in paraffin, sectioned, and hematoxylin-eosin stained.

[3] = Distribution of tacrolimus after periadventitial injection in swine coronary arteries, LC/MS of tissue; assay type: in vivo
Description: Distribution of a lipophilic compound (tacrolimus): Eight swine underwent angiography. […] The two remaining arteries served as untreated controls. An untreated heart was used as a negative control. At 48 hours arteries were dissected from the musculature and perivascular fat, cut into 5 mm sections and analyzed by Liquid Chromatography/Mass Spectrometry against tacrolimus calibration standards containing homogenized untreated porcine heart tissue.

[4] = test system: patients with atherosclerotic lower extremity occlusive disease of the superficial femoral or popliteal arteries
Excerpt: Patients with TASC II A, B, and C disease of the superficial femoral and/or popliteal arteries were eligible for this study.
Unique identifier: NCT 01507558). The study design was a prospective, single-center, investigator-initiated study that enrolled consecutive patients who met eligibility requirements from the San Francisco Veteran Affairs Medical Center. This study was approved by the Committee for Human Research and the University of California Clinical and Translational Science Institute. Safety data and outcomes were monitored by a Data Safety and Monitoring Committee that convened on a quarterly basis or as needed.
The primary inclusion criteria were patients suffering from moderate to severe disabling claudication, ischemic rest pain, or minor tissue loss secondary to atherosclerotic lower extremity occlusive disease with TransAtlantic Inter-Society Consensus II […] lesions of the superficial femoral artery (SFA) or popliteal arteries.
The Bullfrog® Micro-Infusion is a rapid-exchange, wire-guided catheter with a balloon-sheathed 0.9-mm-long, 35-gauge (140 μm diameter) needle that delivers infusions to adventitial and perivascular tissues. It is Food and Drug Administration 510(k)-cleared for use in coronary and peripheral arteries. It is advanced through a 6F sheath over a 0.014-inch wire and can treat vessels from 3 to 6 mm in diameter. Three radio-opaque markers on the catheter allow for proper orientation of the needle. Using standard angioplasty inflation equipment, the balloon was inflated exposing the needle. When the balloon contacted the arterial wall opposite the needle tip, contact pressure forced the needle through the vessel wall and into the adventitia and perivascular tissues. The contact pressure of the balloon against the artery wall is limited to 2 atmospheres by a pressure release valve, which prevents damage to the artery wall. A mixture of infusate and contrast (4:1) was then delivered under fluoroscopic guidance into the adventitia. A test injection of 0.1 mL was made to confirm proper adventitial placement of the microinfusion needle tip. If resistance is met, or the test injection enters the blood stream, the balloon was deflated and the injection is attempted in another location by moving the catheter a few millimeters proximally or distally or rotating the catheter a few degrees. Once adventitia placement was confirmed, the remainder of the infusate was delivered at a rate of 1 mL/min. When the infusion was complete, the balloon was deflated, sheathing the needle, and allowing the catheter to be withdrawn. FIG. 12. Injections were administered approximately every 3 cm along the length of the treated arterial segment.
Patients not taking aspirin or clopidogrel before study enrollment received 325 mg of aspirin 12 hours prior the procedure. Postprocedure, patients were prescribed 81 mg/d of aspirin to be taken indefinitely and 75 mg/d of clopidogrel daily for 12 weeks. Vascular access was accomplished by either the contralateral or ipsilateral (anterograde) approach. Patients received a bolus of 5000 IU of heparin after insertion of the sheath in the common femoral artery, and their activated clotting time was kept above 250 seconds with additional heparin as needed. In the case of chronic total occlusions, all lesions were crossed subintimally with a glide wire and glide catheter (Terumo, Somerset, N.J.). After securing access across the lesion with a guidewire, the target lesion was treated according to physician preference. All patients were treated with balloon angioplasty.

[5] = test system: graft-vein anastomosis and proximal vein of porcine AV grafts; settings: pig, in vivo
Description: Fourteen days after graft implantation, percutaneous transluminal angioplasty (PTA) was performed (7 mm balloon, 16 atmosphere inflation pressure) at two sites per graft: across the graft-vein anastomosis (GVA) and in the proximal vein (PV). […] Infusions of 3 ml were always consistent between the 2 grafts in each animal.

[6] = test system: patients with superficial femoral or popliteal artery lesions; assay: DANCE Trial: circulating hsCRP and MCP-1 after revascularization with adventitial and perivascular dexamethasone; assay type: in vivo, human; settings: baseline and 24 hours, about 1.6 mg per cm of lesion
Description: An additional study has enrolled 140 patients in the United States, meeting similar enrollment criteria as those in the 20-patient study described above. In these patients, approximately one-third of them have had blood draws right before a revascularization procedure of their superficial femoral or popliteal artery, and then again at 24±4 hours after their revascularization procedure. Arterial lesions in this study were at least 70% occlusive prior to revascularization and up to 15 cm in length. Revascularization therapy was performed with angioplasty, atherectomy, provisional stenting, or a combination thereof. […] The Schillinger 2002 published research would indicate the likelihood for a substantial rise in the hsCRP after revascularization therapy, and that this rise is linked to the rate of restenosis at 6 months following the revascularization procedure. The data from Schillinger 2002 and the 20-patient study described above (the DANCE-Pilot, in which 15 patients had baseline and 24 hour hsCRP levels examined) are plotted in FIG. 15, along with 41 patients from the larger 139 patient group (the DANCE Trial).
Additional data coming out of the interim analysis of the DANCE study includes the first 9 patients to have MCP-1 analyzed from their circulating blood at baseline and at 24 hours. […]

Oregon Green® 488 paclitaxel [OGP]
circumferential staining [1]: staining was observed throughout the circumference of the artery

O=[N+]([O-])[O-].[Ag+] [Silver Nitrate]
staining: site of delivery and diffusion [2]: delivery outside the external elastic lamina of the vessels and diffusion around the circumference

C=CC[C@@H]1/C=C(\C)C[C@H](C)C[C@H](OC)[C@H]2O[C@@](O)(C(=O)C(=O)N3CCCC[C@H]3C(=O)O[C@H](/C(C)=C/[C@@H]3CC[C@@H](O)[C@H](OC)C3)[C@H](C)[C@@H](O)CC1=O)[C@H](C)C[C@@H]2OC [tacrolimus]
segments in which drug was detected ([3]; 48 hours, including side branches and uninjected arteries): 285/293 | subjects with distribution to the entire coronary tree ([3]; periadventitial delivery, higher concentrations at injection sites): 8/8

C[C@@H]1C[C@H]2[C@@H]3CCC4=CC(=O)C=C[C@]4(C)[C@@]3(F)[C@@H](O)C[C@]2(C)[C@@]1(O)C(=O)CO [dexamethasone]
patients with target lesion restenosis ([4]; 6 month follow up, PSV ratio >2.4 or occlusion by ultrasound): two | Rutherford classification scores versus pre-op baseline ([4]; 6 months, all patients but the one with target lesion restenosis): improved | mean Rutherford score ([4]; 6 months, preoperative 3.1±0.71, P<0.00001): 0.5±0.70 | median Rutherford score ([4]; 6 months, preoperative median 3.0): 0 | mean ABI versus baseline ([4]; all time points post procedure, FIG. 14): significantly improved | patients with only partial coverage by contrast distribution (grade=B) ([4]; assessed by fluoroscopy): one | subjects with complete circumferential coverage of the lesion with the infusate (grade=A) ([4]; assessed by fluoroscopy immediately after the infusion): 19 out of 20 subjects | patients with loss of primary patency (duplex ultrasound binary restenosis) ([4]; by 6 months, 20 patients): Two | anticipated rise of hsCRP ([4]; compared with Schillinger 2002): appears to be dampened | patients with target extremity stenosis not within the treated segment ([4]; follow up 381±181 days): Three | ABI measurements ([4]; one-year follow up, N=10, P<0.0001 vs baseline): 1.04±0.21 | PSVR ([4]; one-year follow up, patients without index lesion restenosis, N=8): 1.1±0.6 | CRP at 24 hours following the procedure ([4]; preoperative 6.9±8.5, P=0.14): 14.0 ± 23.1 mg/L | increase of CRP at 24 hours ([4]; versus preoperative, not statistically significant (P=0.14)): 103% | drug or device-related adverse events reported ([4]; within 30 days, acute hyperglycemia in one patient, controlled by insulin): one | adverse effect compared to placebo in the adventitia [5]: no observable adverse effect | effect on hsCRP inflammatory spike after revascularization ([6]; 41 patients, versus Schillinger 2002, FIG. 15): capable of reducing the inflammatory spike | change in circulating MCP-1 ([6]; first 9 patients, FIG. 16): marked drop in MCP-1; also recorded: a drop in MCP-1
